Test results published in patent publication US20060183189A1, “Regulatable gene expression in mammalian cells and mammals” (priority 2003, published 2006).

Key:
[1] = target: T1, AlkS (Ectopseudomonas oleovorans, UniProt P17051); assay: AlkS-based regulatable SEAP expression in CHO-K1 cells; assay type: cell-based, Pseudomonas putida (oleovorans); conditions: CHO-K1 cells transfected with AlkS and PSV40 promoter with 8 OP repeats; upon addition of regulating compound
T1 construct: expressed in transfected cells; host or cells: CHO-K1
T1 sequence (P17051 whole entry): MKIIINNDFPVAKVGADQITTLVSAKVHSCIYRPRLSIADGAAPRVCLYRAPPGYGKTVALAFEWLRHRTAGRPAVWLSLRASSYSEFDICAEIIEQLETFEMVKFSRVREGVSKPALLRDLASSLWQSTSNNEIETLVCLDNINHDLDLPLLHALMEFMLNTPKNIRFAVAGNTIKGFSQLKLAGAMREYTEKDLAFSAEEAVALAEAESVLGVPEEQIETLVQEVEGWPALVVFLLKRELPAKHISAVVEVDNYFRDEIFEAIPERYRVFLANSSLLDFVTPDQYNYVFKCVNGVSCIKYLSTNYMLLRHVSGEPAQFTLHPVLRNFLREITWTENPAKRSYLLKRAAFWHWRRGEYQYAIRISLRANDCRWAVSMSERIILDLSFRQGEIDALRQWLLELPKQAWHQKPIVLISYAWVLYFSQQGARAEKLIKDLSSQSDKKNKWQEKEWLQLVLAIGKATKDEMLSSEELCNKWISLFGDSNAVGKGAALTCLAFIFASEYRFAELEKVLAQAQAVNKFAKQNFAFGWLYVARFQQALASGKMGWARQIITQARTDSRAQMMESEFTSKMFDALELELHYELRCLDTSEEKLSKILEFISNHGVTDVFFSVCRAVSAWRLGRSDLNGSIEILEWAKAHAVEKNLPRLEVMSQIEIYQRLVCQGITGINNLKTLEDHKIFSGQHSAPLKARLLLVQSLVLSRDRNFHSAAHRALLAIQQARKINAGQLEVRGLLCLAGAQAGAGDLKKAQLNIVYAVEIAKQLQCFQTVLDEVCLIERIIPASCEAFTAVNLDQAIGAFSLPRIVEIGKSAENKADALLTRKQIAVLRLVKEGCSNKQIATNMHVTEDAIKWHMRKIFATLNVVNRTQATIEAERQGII
Excerpt: A regulatable expression system responsive to liquid or gaseous inducers based on bacterial elements is constructed by PCR-cloning the Pseudomonas putida (oleovorans)-derived RTF AlkS (Smiths et al., 2001. Plasmid 46, 16-24) into the mammalian expression vector pEF6V5-His TOPO (Invitrogen, Carlsbad, Calif.). The responsive promoter is constructed by cloning 8 repeats of the AlkS-specific OP site downstream of the simian virus 40 promoter PSV40 followed by a reporter gene, the secreted alkaline phosphatase SEAP.
Transfection of the plasmids encoding AlkS and the responsive promoter controlling SEAP expression in CHO-K1 cells results in SEAP expression levels typical for PSV40-driven constitutive expression.

[2] = target: T2, AlcR (Emericella nidulans, UniProt P21228); assay: Gas-phase controlled SEAP expression of stable CHO-K1-derived cell line in a bioreactor; assay type: cell-based, Aspergillus nidulans; conditions: 2.5 L bioreactor, gassing in air containing 340 ppm acetaldehyde, then 40 ppm; shut down by sparging with pure air
T2 construct: excising alcR (EcoRI/SalI) from an alcR cDNA containing vector; expressed in transfected cells; host or cells: CHO-K1
T2 sequence (P21228 whole entry): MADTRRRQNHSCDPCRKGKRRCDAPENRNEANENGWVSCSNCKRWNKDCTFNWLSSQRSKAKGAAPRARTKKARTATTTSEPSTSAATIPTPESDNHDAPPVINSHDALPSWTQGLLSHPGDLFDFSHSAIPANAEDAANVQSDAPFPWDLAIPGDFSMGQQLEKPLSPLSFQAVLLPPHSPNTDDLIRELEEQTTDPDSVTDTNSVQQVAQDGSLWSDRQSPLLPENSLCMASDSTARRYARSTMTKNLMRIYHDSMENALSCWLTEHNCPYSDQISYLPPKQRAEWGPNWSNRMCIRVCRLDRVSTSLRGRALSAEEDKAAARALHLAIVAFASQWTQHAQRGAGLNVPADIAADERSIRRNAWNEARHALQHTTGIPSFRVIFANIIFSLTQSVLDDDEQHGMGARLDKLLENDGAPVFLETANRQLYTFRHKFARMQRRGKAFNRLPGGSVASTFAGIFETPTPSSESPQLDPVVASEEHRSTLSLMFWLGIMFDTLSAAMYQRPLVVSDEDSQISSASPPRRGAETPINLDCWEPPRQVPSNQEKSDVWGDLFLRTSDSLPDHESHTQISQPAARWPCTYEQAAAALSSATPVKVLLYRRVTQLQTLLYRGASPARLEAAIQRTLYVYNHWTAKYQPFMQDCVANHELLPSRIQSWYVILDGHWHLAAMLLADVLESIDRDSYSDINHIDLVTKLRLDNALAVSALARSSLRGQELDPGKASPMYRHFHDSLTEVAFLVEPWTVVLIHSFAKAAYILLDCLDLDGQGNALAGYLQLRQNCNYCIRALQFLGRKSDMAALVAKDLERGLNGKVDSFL
Excerpt: A stable CHO-K1-derivative engineered for acetaldehyde-inducible SEAP expression is cultivated in a bioreactor. […] The specific SEAP productivities (μU/10^6 cells/h) are indicated over time (h).
A CHO-K1-derived cell line is constructed for gas-inducible expression of a secreted alkaline phosphatase (SEAP) by stable transfection/transduction with plasmid pWW192 (see Example 1) and a pWW506-based viral particle (see Example 4).

SMILES: CCOCC [ethyl ether]
- SEAP expression [1]: decreases in a dose-dependent manner

SMILES: O=C(C1CC1)C1CC1 [dicyclopropylketone]
- SEAP expression [1]: decreases in a dose-dependent manner

SMILES: CCOC(C)=O [ethyl acetate]
- SEAP expression [1]: decreases in a dose-dependent manner

SMILES: CC=O [acetaldehyde]
- SEAP expression [2]: induced
